According to patent publication US9260400B2, “I-arylpiperazinic ligands of 5-HT7 receptor and use thereof” (UNIVERSITA' DEGLI STUDI DI BARI “ALDO MORO”, priority 2011, dated 2016):

Tests used:
[1] = biological target: T1, Human 5-HT1A serotonin receptors (Homo sapiens, UniProt P08908); assay: Radioligand binding assay at human cloned 5-HT1A receptor ([3H]-8-OH-DPAT); conditions: compound at 10−7M
T1 construct: expressed in transfected cells; host or cells: HEK293-EBNA
T1 sequence (P08908 1-422): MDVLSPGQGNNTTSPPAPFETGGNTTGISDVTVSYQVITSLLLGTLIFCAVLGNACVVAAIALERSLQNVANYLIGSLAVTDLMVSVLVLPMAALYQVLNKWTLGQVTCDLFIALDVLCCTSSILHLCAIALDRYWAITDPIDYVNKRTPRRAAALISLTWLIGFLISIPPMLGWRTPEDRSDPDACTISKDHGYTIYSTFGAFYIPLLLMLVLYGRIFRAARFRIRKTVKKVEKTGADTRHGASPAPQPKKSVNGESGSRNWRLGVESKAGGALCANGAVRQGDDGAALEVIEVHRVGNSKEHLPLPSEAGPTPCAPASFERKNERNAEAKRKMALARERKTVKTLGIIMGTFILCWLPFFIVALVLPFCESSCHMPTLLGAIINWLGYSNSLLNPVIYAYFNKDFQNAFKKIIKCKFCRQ
Procedure: Radioligand Binding Assay At Human Cloned 5-HT1A Receptor
Human 5-HT1A serotonin receptors stably expressed in HEK293-EBNA cells were radiolabeled with 1.0 nM [^3H]-8-OH-DPAT [J. Biol. Chem. 1989, 264, 14848]. Samples containing 32 μg of membrane protein, different concentrations of each compound ranging from 0.1 nM to 10 μM were incubated in a final volume of 500 μL of 50 mM Tris-HCl pH 7.4, 5 mM MgSO4 for 120 min at […]. After this incubation time, samples were filtered through Whatman GF/C glass microfiber filters pre-soaked in polyethylenimine 0.5% for at least 30 min prior to use. The filters were washed twice with 1 ml of ice-cold buffer (50 mM Tris-HCl, pH 7.4). Nonspecific binding was determined in the presence of 10 μM 5-HT.
(§1) Competition binding data were analyzed using the GraphPad Prism Software (GraphPad Software, Inc., San Diego, Calif., USA). The value for the inhibition constant, Ki, was calculated by using the Cheng-Prusoff equation [Anal. Biochem. 1980, 107, 200-239].

[2] = biological target: T2, human cloned 5-HT7 receptor (Homo sapiens, UniProt P34969); assay: Radioligand binding assay at human cloned 5-HT7 receptors ([3H]-5-CT competition); conditions: read-out: 5-HT7 (pKi) (converted)
T2 construct: expressed in transfected cells
Procedure: Radioligand Binding Assay At Human Cloned 5-HT7 Receptors
Functionality assays on the 5-HT7 receptor were done according to Jasper et al [Br. J. Pharmacol. 1997, 122, 126.] with minor modifications. The test is a competition assay based on binding of [^3H]-5-CT at human cloned 5-HT7 receptor. In 0.5 mL of incubation buffer (50 mM Tris-HCl, 10 mM MgSO4 and 0.5 mM EDTA, pH 7.4) were suspended 34 μg of membranes, 1.5 nM [^3H]-5-CT, the drugs or reference compound (six to nine concentrations). The samples were incubated for 120 min at 27° C. The incubation was stopped by rapid filtration on Whatman GF/C glass microfiber filters (pre-soaked in 0.3% polyethylenimine for 30 min). The filters were washed with 3×1 mL of ice-cold buffer (50 mM Tris-HCl, pH 7.4). Nonspecific binding was determined in the presence of 10 μM 5-CT. Approximately 90% of specific binding was determined under these conditions.
as §1

[3] = In vitro metabolic stability using liver S9 fractions; type: in vitro ADME; conditions: 10 μM compound, 1 mg/ml rat liver S9, 30 min at 37° C.
Procedure: Determination of in vitro Metabolic Stability Using Liver S9 Fractions
Tested compounds (10 μM) were incubated with rat liver S9 fractions (1 mg/ml), liver S9 fractions are subcellular fractions that contain drug-metabolizing enzymes such as cytochromes P450, flavin monooxygenases, and UDP glucuronyl transferases.
The incubation was performed in 100 mM phosphate buffer (pH 7.4) containing 1.3 mM of NADP+, 3.3 mM glucose 6-phosphate and 0.4 U/ml glucose 6-phosphate dehydrogenase, 3.3 mM MgCl2 in a total volume of 1 mL. Incubations were commenced with the addition of glucose 6-phosphate dehygrogenase and carried out for 30 min. at 37° C. The reaction was stopped by adding 1 mL of cooled acetonitrile. The samples were centrifuged at 4600 rpm for 10 min at 4° C. The supernatant was separated and the acetonitrile phase was analyzed by using a reversed-phase HPLC equipped with a Perkin-Elmer series 200 LC pump and a Perkin-Elmer 785A UV/VIS detector. UV signals were monitored and obtained peaks integrated using a personal computer running Perkin-Elmer Turbochrom Software. The column used was a Phenomenex Gemini C-18 (250×4.6 mm, 5 μm particle size). The samples were eluted with ammonium formate (20 mM; pH 6.7) and acetonitrile 80:20 v/v at a flow rate of 1 mL/min and at the appropriate UV wavelength. The sample injection volume was 20 μL.
This assay provides information on the xenobiotic metabolism of the tested compounds; the results obtained are reported in table 1.

[4] = after 20 minutes following i.p injection; cited from earlier work

T2 sequence (P34969 whole entry): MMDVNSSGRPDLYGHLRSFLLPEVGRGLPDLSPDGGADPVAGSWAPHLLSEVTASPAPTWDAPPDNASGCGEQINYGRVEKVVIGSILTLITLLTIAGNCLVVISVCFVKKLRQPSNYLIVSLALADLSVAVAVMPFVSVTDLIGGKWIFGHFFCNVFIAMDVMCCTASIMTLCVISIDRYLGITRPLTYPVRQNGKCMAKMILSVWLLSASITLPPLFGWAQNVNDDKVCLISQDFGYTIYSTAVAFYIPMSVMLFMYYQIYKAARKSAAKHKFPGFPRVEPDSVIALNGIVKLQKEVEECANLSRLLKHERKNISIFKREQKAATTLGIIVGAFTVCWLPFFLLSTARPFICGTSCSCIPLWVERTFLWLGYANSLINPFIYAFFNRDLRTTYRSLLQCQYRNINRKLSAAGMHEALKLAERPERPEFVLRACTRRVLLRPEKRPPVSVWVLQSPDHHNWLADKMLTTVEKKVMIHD

| SMILES | 5-HT1A (% displacement of radioligand at 10−7M conc.) [1] [%] | Ki [2] [nM] | % parent compound after incubation with rat liver S9 fractions [3] [%] | plasma and brain concentration [4] |
| --- | --- | --- | --- | --- |
| FCCOc1ccc(OCCN2CCN(c3ncccc3-c3ccccn3)CC2)cc1 [Example 18, 1-[2-[4-(2-Fluoroethoxy)phenoxy]ethyl]-4-[3-(2-pyridyl)-2-pyridyl]piperazine] | 20 | 20 | 68 | – |
| COc1ccc(OCC(O)CN2CCN(c3ccccc3-c3ccccc3)CC2)cc1 (stereo not shown) [Example 1, 1-(4-Methoxyphenoxy)-3-[4-(2-biphenyl)piperazin-1-yl] propan-2-ol] | 46 | 16.6 | 35 | – |
| COc1ccc(CNC(=O)CCCCCN2CCN(c3ncccc3-c3ccccn3)CC2)cc1 [Example 24, N-[(4-Methoxyphenyl)methyl]-6-[4-[3-(2-pyridyl)-2-pyridyl]piperazin-1-yl]hexanamide] | 31 | 5.75 | 80 | – |
| COc1cccc(OCCN2CCN(c3ncccc3-c3ccccn3)CC2)c1 [Example 15, 1-[2-(3-Methoxyphenoxy)ethyl]4-[3-(2-pyridyl)-2-pyridyl]piperazine] | 35 | 5.37 | 78 | – |
| COc1ccc(-c2ccccc2N2CCN(CCCCCC(=O)NCc3ccccn3)CC2)cc1 [Example 21, 4-[2-(4-Methoxyphenyl)phenyl]-N-(2-pyridinylmethyl)-1-piperazinehexanamide] | 37 | 1.62 | 55 | – |
| CSc1ccccc1N1CCN(CCCCCC(=O)NC2CCCc3ccccc32)CC1 (stereo not shown) [LP-44] | – | – | – | undetectable |
| COc1cccc(C(F)CN2CCN(c3ncccc3-c3ccccn3)CC2)c1 (stereo not shown) [Example 12, 1-[2-Fluoro-2-(3-methoxyphenyl)ethyl]-4-[3-(2-pyridyl)-2-pyridyl)piperazine] | 25 | 6.92 | 84 | – |
| COc1ccc(OCC(O)CN2CCN(c3ncccc3-c3ccncc3)CC2)cc1 (stereo not shown) [Example 5, 1-(4-Methoxyphenoxy)-3-[4-[3-(4-pyridyl)-2-pyridyl]piperazin-1-yl]propan-2-ol] | 26 | 7.59 | 82 | – |
